Here are results for 12 molecules from ChEMBL document CHEMBL1201862, “PubChem BioAssay data set” (2004).

Molecules are shown by their SMILES.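 Growth conditions: 96-well plates. Treatment: test compound, 48 hours, 5 concentrations. Analysis: linear interpolation between bracketing concentrations; unreached endpoints set to highest concentration. Here, GI50 denotes the concentration required for 50% inhibition of growth.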 Active and inactive are the calls of the source. Cut-off read from the data, not from the text of the source: active = GI50 up to about 1.1 µM and inactive = higher.

What all share (experiment): NCI-60 cell line screen, 48 h
Test [1] relates to LOX IMVI.
Test [2] deals with NCI-H460.
Test [3] concerns ACHN.
In test [4] the test system is SNB-19.
The subject of test [5] is PC-3.
The subject of test [6] is SK-MEL-28.
Test [7] concerns NCI-H23.
Test [8] deals with MDA-MB-231.
The test system of test [9] is U-251.
Test [10] deals with HCT-116.
Test [11] relates to SK-MEL-2.
Test [12] has as its system HCC 2998.
In test [13] the test system is CCRF-CEM.
The subject of test [14] is OVCAR-8.
In test [15] the test system is Hs-578T.
In test [16] the test system is NCI/ADR-RES.
The subject of test [17] is SN12C.
Test [18] concerns Malme-3M.
Test [19] has as its system HOP-92.

`CC(=O)OC1=C(CC(C)(C)C)C(=O)c2ccccc2C1=O`: the GI50 in [1] was 47.5 µM (inactive); in test [2], 25 µM (inactive); in test [3], 35.6 µM (inactive); in test [4], 42.6 µM (inactive); in test [5], 29.1 µM (inactive); in [6], 42.4 µM (inactive). The GI50 in test [7] was 15.6 µM (inactive); in test [8], 87.7 µM (inactive); in test [9], 44.8 µM (inactive); in test [10], 25.8 µM (inactive); in [11] it was 31.8 µM (inactive); in test [12], 40.2 µM (inactive). Also, the GI50 in [13] was 19.3 µM (inactive); in test [14], 27.2 µM (inactive); in [15], 14.5 µM (inactive); in [16], 18.1 µM (inactive).

For the molecule `[O-][n+]1c2ccccc2[n+]([O-])c2ccccc21`, the GI50 was > 100 µM (inactive) in test [1]; 30.1 µM (inactive) in test [2]; 61 µM (inactive) in test [3]; 86.3 µM (inactive) in [4]; > 100 µM (inactive) in [17]; > 100 µM (inactive) in test [5]. Also, the GI50 in [6] is > 100 µM (inactive); in test [7], 24 µM (inactive); in test [8], 44.5 µM (inactive); in test [9] it was > 100 µM (inactive); in test [10], > 100 µM (inactive); in test [11], > 100 µM (inactive). For the same molecule, the GI50 in test [18] is > 100 µM (inactive); in test [13], 4.32 µM (inactive); in [14], 86.3 µM (inactive); in [15], > 100 µM (inactive); in test [16], > 100 µM (inactive).

With `CCOC(=O)c1c(-c2ccc(Cl)cc2)c(C#N)c(=S)n(C2OC(COC(C)=O)C(OC(C)=O)C(OC(C)=O)C2OC(C)=O)c1C` (stereo not drawn), the GI50 is > 100 µM (inactive) in [1]; > 100 µM (inactive) in [2]; > 100 µM (inactive) in test [3]; > 100 µM (inactive) in [4]; > 100 µM (inactive) in test [17]; 0.759 µM (active) in [5]. In addition, the GI50 in [6] is > 100 µM (inactive); in [7], > 100 µM (inactive); in test [8], > 100 µM (inactive); in test [19] it was 0.125 µM (active); in [9], > 100 µM (inactive); in test [10], > 100 µM (inactive). Moreover, the GI50 is 1.77 µM (inactive) in [11]; > 100 µM (inactive) in test [12]; > 100 µM (inactive) in test [18]; > 100 µM (inactive) in test [13]; > 100 µM (inactive) in [14]; > 100 µM (inactive) in test [16].

For `CN(C)/C=C/C(=CC=[N+](C)C)/C=C/N(C)C.[O-][Cl+3]([O-])([O-])[O-]`, the GI50 in test [1] is 57 µM (inactive); in test [2], > 100 µM (inactive); in test [3] it was > 100 µM (inactive); in test [4] it was > 100 µM (inactive); in [17], > 100 µM (inactive); in test [6], > 100 µM (inactive). The GI50 in test [7], in test [19], in test [9], in test [10], in [11] and in test [12] was > 100 µM (inactive) throughout. Moreover, the GI50 is > 100 µM (inactive) in test [18], 60.3 µM (inactive) in test [13] and > 100 µM (inactive) in test [14].

Take `Cc1c(N)c(C#N)c2n(C)c3ncccc3n2c1=O`: the GI50 in test [1], in [2], in test [3], in test [4], in [17] and in test [6] was > 100 µM (inactive) in each case. The GI50 in [7], in [19], in test [9], in test [10], in [11] and in test [12] was > 100 µM (inactive) throughout. The GI50 in test [18], in test [13] and in test [14] was > 100 µM (inactive) in each case.

For the molecule `CCOC(=O)C1(C(=O)OCC)C(C(C)(C)C)=C(C)c2ccccc21`, the GI50 in test [1] is 12.3 µM (inactive); in test [2], 11.9 µM (inactive); in test [3], 13.2 µM (inactive); in test [4] it was 19.9 µM (inactive); in test [17] it was 15.3 µM (inactive); in test [6] it was 12.5 µM (inactive). Further, the GI50 in test [7] is 10.2 µM (inactive); in test [19], 3.4 µM (inactive); in test [9], 15.3 µM (inactive); in test [10], 6.75 µM (inactive); in [11] it was 18.5 µM (inactive); in [12], 16 µM (inactive). Besides, the results for the GI50 in test [18], in test [13] and in [14] were 11.4 µM (inactive), 13.1 µM (inactive) and 20.6 µM (inactive), respectively.

Take `C=C1CC(CC(=O)C(C)CC2CC(=C)C(=O)O2)OC1=O` (stereo not drawn): the GI50 was 15.6 µM (inactive) in test [1]; 32.1 µM (inactive) in test [2]; 18.6 µM (inactive) in [3]; > 100 µM (inactive) in test [4]; 16.7 µM (inactive) in test [17]; 15.8 µM (inactive) in test [6]. Besides, the GI50 in test [7] is 18.8 µM (inactive); in test [19], 17.7 µM (inactive); in test [9] it was 71.4 µM (inactive); in test [10], 12.1 µM (inactive); in [11], 9.35 µM (inactive); in test [12] it was 37.1 µM (inactive). In addition, the results for the GI50 in test [18], in [13] and in test [14] were 14.5 µM (inactive), 6.3 µM (inactive) and 28 µM (inactive), respectively.

On to `CCOC(=O)C1C(c2ccc3c(c2)OCO3)c2c(n[nH]c2O)CC1(O)OCC` (stereo not drawn), for which the GI50 was > 100 µM (inactive) in test [1]; > 100 µM (inactive) in test [2]; > 100 µM (inactive) in test [3]; > 10 µM (inactive) in [4]; > 100 µM (inactive) in test [17]; > 100 µM (inactive) in test [5]. Further, the GI50 in test [6], in test [7], in test [8], in test [19], in test [9] and in test [10] was > 100 µM (inactive) each time. The GI50 in [11], in [12], in test [18], in test [13], in test [14] and in test [15] was > 100 µM (inactive) in each case. Further, the GI50 in test [16] is > 100 µM (inactive).

As for `CC(=O)Nc1c(C(=N)C#N)ncn1CCO`, the GI50 in test [1], in [2], in test [3], in test [4], in test [17] and in test [5] was > 100 µM (inactive) in each case. Besides, the GI50 in [6], in test [7], in test [8], in test [19], in test [9] and in test [10] was > 100 µM (inactive) throughout. Further, the GI50 in test [11], in [12], in test [18], in [13], in [14] and in test [15] was > 100 µM (inactive) each time. Besides, in [16], the GI50 was > 100 µM (inactive).

In the case of `O=C(CC(O)(C(F)(F)F)C(F)(F)Cl)CC(O)(C(F)(F)F)C(F)(F)Cl` (stereo not drawn), the GI50 in [1] was 2.82 µM (inactive); in test [2], 1.64 µM (inactive); in [3], 1.77 µM (inactive); in test [4], 2.22 µM (inactive); in test [17] it was 1.5 µM (inactive); in test [5] it was 1.64 µM (inactive). In addition, the GI50 in [6] is 4.34 µM (inactive); in test [7] it was 1.25 µM (inactive); in [8], 2.05 µM (inactive); in test [19], 1.71 µM (inactive); in test [9], 1.88 µM (inactive); in test [10], 1.67 µM (inactive). For the same molecule, the GI50 is 1.59 µM (inactive) in test [11]; 3.04 µM (inactive) in [12]; 1.14 µM (inactive) in [18]; 3.86 µM (inactive) in test [13]; 2.88 µM (inactive) in test [14]; 2.07 µM (inactive) in [15]. For the same molecule, in test [16], the GI50 is 2.58 µM (inactive).

Regarding `O=C(/C=C/c1ccc(Cl)cc1)c1ccc(Cl)c(Cl)c1`, the GI50 was 15.2 µM (inactive) in [1]; 34.6 µM (inactive) in [2]; 29 µM (inactive) in test [3]; 23.7 µM (inactive) in test [4]; 9.1 µM (inactive) in test [17]; 17.3 µM (inactive) in test [6]. Further, the GI50 in [7] is 9.4 µM (inactive); in [19], > 10 µM (inactive); in test [9], 11.2 µM (inactive); in test [10], 4.99 µM (inactive); in [11] it was 23.4 µM (inactive); in test [12] it was 30.3 µM (inactive). Also, the GI50 in test [18] is 25.1 µM (inactive); in test [13] it was 16.2 µM (inactive); in [14], 20.6 µM (inactive).

With `CCCCCCCC(=O)OCC1OC(n2cc(F)c(=O)[nH]c2=O)C(NC(=O)OCc2ccccc2)C(O)C1O` (stereo not drawn), the GI50 was 37.1 µM (inactive) in test [1]; > 100 µM (inactive) in test [2]; > 100 µM (inactive) in test [3]; 53.3 µM (inactive) in [4]; 32.9 µM (inactive) in test [17]; > 100 µM (inactive) in test [6]. Also, the GI50 in test [7] was > 100 µM (inactive); in test [19], 23.8 µM (inactive); in [9], 80.2 µM (inactive); in test [10], > 100 µM (inactive); in [11], 20.4 µM (inactive); in [12] it was 19.5 µM (inactive). The GI50 in test [18] was > 100 µM (inactive); in test [13] it was 26.5 µM (inactive); in [14] it was > 100 µM (inactive).
